In the supplement of paper PMC12317010:
Structures can show the parent of a compound that is named as a salt.

Experiment: collision cross section in nitrogen (drift tube, single-field); higher = larger gas-phase ion size
[1] = ion type: [M+Na], ion source: ESI, ion mode: Positive
[2] = ion type: [M-H], ion source: ESI, ion mode: Negative
[3] = ion type: [M+H], ion source: APCI, ion mode: Positive
[4] = ion type: [M+H], ion source: ESI, ion mode: Positive
[5] = ion source: ESI, ion mode: Positive, ion type: [M]+ (permanent cation)
[6] = ion source: APCI, ion mode: Positive, ion type: [M]+ (permanent cation)
[7] = ion type: [M+], ion source: APCI, ion mode: Positive
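Note: chemical standards at 10 µM analysed by drift tube IMS-QTOF MS in about 3.95 torr nitrogen, mean of duplicate injections differing ≤1%, mass error below 10 ppm.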

collision cross section in nitrogen [1] [Å²]	collision cross section in nitrogen [2] [Å²]	collision cross section in nitrogen [4] [Å²]	Compound	further results
188.2	166.6		Nc1ccc(C(=O)OCCCOC(=O)c2ccc(N)cc2)cc1 [1,3-Propanediyl bis(p-aminobenzoate)]	
	188.9		O=C(O)Cn1c(=O)n(Cc2ccc(Br)cc2F)c(=O)c2ccc(Cl)cc21 [Zenarestat]	
167.7		162.8	CC(C)NCC(O)COc1cccc2ccccc12 (stereo not drawn) [Propranolol hydrochloride]	collision cross section in nitrogen [3]: 162.5 Å²
171.4			CC(Cl)COP(=O)(OCC(C)Cl)OCC(C)Cl (stereo not drawn) [Tris(2-chloropropyl) phosphate]	
			CCCCCCCCCCCC[N+](C)(C)CC(=O)O [C12-14-Alkyldimethyl betaines]	collision cross section in nitrogen [5]: 183.8 Å²
141.3			C=CCOCC(CC)(CO)CO [2-Allyloxymethyl-2-ethylpropanediol]	
224.2			CCCCC(CC)COC(=O)CCCCCCCCC(=O)OCC(CC)CCCC (stereo not drawn) [Bis(2-ethylhexyl) decanedioate]	
	127.2		O=S(=O)(O)c1ccccc1 [Benzenesulfonic acid]	
		144.8	CN1C(=O)CC[C@H]1c1cccnc1 [Cotinine]	
	153.3		Nc1ccc2c(O)cc(S(=O)(=O)O)cc2c1 [7-Amino-4-hydroxynaphthalene-2-sulfonic acid]	
159.6			NC(=O)OCC(COC(N)=O)c1ccccc1 [Felbamate]	
		135.4	CCN1C(=O)c2ccccc2C1=O [N-Ethylphthalimide]	collision cross section in nitrogen [3]: 133.7 Å²
261.8	261.9	254.3	CCN(Cc1cccc(S(=O)(=O)O)c1)c1ccc(C(=C2C=CC(=[N+](CC)Cc3cccc(S(=O)(=O)[O-])c3)C=C2)c2ccccc2)cc1 [FD&C Green No. 1]	
166.5			CCC(C)OC(=O)N1CCCCC1CCO (stereo not drawn) [Icaridin]	
	144.9		Nc1ccc2c(c1)C(=O)c1ccccc1C2=O [2-Aminoanthraquinone]	
	177.6		CCCCCCCCCCCCCC(=O)OCCCC [Butyl myristate]	
			CN(C[C@@H](CC[N+]12CCC(C3CCCCC3)(CC1)CC2)c1ccc(Cl)c(Cl)c1)C(=O)c1cc(C(F)(F)F)cc(C(F)(F)F)c1	collision cross section in nitrogen [6]: 260.7 Å²; collision cross section in nitrogen [5]: 262.3 Å²
			CN(C)c1ccc(C(=C2C=CC(=[N+](C)C)C=C2)c2ccccc2)cc1 [Malachite green]	collision cross section in nitrogen [6]: 188.5 Å²; collision cross section in nitrogen [5]: 188.9 Å²
	182.3		C#C[C@]1(O)CC[C@H]2[C@@H]3CCc4cc(O)ccc4[C@H]3CC[C@@]21C [17alpha-Ethinylestradiol]	
	145.7		O=C(Oc1ccccc1)c1ccccc1O [Phenyl salicylate]	
184.2			CCCCOCCOC(=O)COc1cc(Cl)c(Cl)cc1Cl [2,4,5-T-butotyl]	
183.4	192.5	190.4	Cc1nc(C)nc(N2C[C@@H](C)N(c3ccnc([C@@H](C)O)n3)[C@@H](C)C2)n1	collision cross section in nitrogen [3]: 191.2 Å²
176.2	178.7		COC(=O)CCc1cc(C(C)(C)C)c(O)c(C(C)(C)C)c1 [Methyl 3,5-bis(tert-butyl)-4-hydroxyhydrocinnamate]	
144.4			CCCOCCOCCOCCO [2-[2-(2-Propoxyethoxy)ethoxy]ethanol]	
169.1			CCOC(=O)CC(O)(CC(=O)OCC)C(=O)OCC [Triethyl citrate]	
	181.1	180	Cc1[nH]nc2c1N=C(c1ccccc1Cl)c1cc([N+](=O)[O-])ccc1N2	collision cross section in nitrogen [3]: 180.2 Å²; collision cross section in nitrogen [7]: 180.3 Å²

collision cross section in nitrogen [1] [Å²]	collision cross section in nitrogen [2] [Å²]	collision cross section in nitrogen [4] [Å²]	Compound	further results
	138.3		Cc1ccc(S(=O)(=O)O)c(C)c1 [2,4-Dimethylbenzenesulfonic acid]	
		200.3	C=C1C[C@H]2[C@@H]3C=C(C)C4=CC(=O)CC[C@]4(C)[C@H]3CC[C@]2(C)[C@@]1(OC(C)=O)C(C)=O [Melengestrol acetate]	collision cross section in nitrogen [3]: 201.5 Å²
	151.9	151	CC(C)NCC(O)c1ccc(O)c(O)c1 (stereo not drawn) [Isoproterenol hydrochloride]	
168.5	161.1	160.8	COc1cc(NC(=O)CC(C)=O)c(OC)cc1Cl [4'-Chloro-2',5'-dimethoxyacetoacetanilide]	collision cross section in nitrogen [7]: 156.7 Å²
		142.8	N#CCCN(CCO)c1ccccc1 [N-Cyanoethyl-hydroxyethyl aniline]	
185.4		184.7	CCCCCCCCCCCCN1CCCCCC1=O [Laurocapram]	collision cross section in nitrogen [3]: 185.5 Å²
181.8	168.9	167.5	COc1ccccc1NC(=O)c1cc2ccccc2cc1O [3-Hydroxy-2-naphthoic o-anisidide]	collision cross section in nitrogen [3]: 167.3 Å²
205.6	193.4	192.4	Cn1c(=O)cc(Oc2ccc(F)cc2F)c2cnc(NCC(C)(C)O)nc21	collision cross section in nitrogen [3]: 192.8 Å²
	171.5		CCCCCCCCOC(=O)c1cc(O)c(O)c(O)c1 [Octyl gallate]	
	150.5		O=C1c2ccc(O)c(O)c2C(=O)c2c(O)ccc(O)c21 [Quinalizarin]	
187		175.4	O=C(NCc1ncc(C(F)(F)F)cc1Cl)c1c(Cl)cccc1Cl [Fluopicolide]	
	119.1		C=CCS(=O)(=O)O [2-Propene-1-sulfonic acid, sodium salt]	
141.5	138.4		NNC(=O)CCCCC(=O)NN [Hexanedihydrazide]	
	133		O=C1NC(=O)[C@@H]2CC=CC[C@H]12 [cis-1,2,3,6-Tetrahydrophthalimide]	
	138		CC(=O)CC(=O)Nc1ccccc1 [Acetoacetanilide]	
		147.6	CC(C)(C)c1ccc(N)cc1 [4-tert-Butylaniline]	collision cross section in nitrogen [3]: 147.3 Å²
			c1ccc2c(c1)c1cccc3ccc4cccc2c4c31 [Benzo[e]pyrene]	collision cross section in nitrogen [7]: 149.7 Å²
	148.2		CC(C)(C)OC(=O)c1ccc(O)cc1 [tert-Butyl 4-hydroxybenzoate]	
	130.1		Nc1cc([N+](=O)[O-])cc(Cl)c1O [2-Amino-6-chloro-4-nitrophenol]	
	248.5		O=S(=O)(O)c1ccccc1C=Cc1ccc(-c2ccc(C=Cc3ccccc3S(=O)(=O)O)cc2)cc1 [Disodium 4,4'-bis(2-sulfostyryl)biphenyl]	
	135.7		NC(=O)Nc1ccc(Cl)c(Cl)c1 [N-(3,4-Dichlorophenyl)urea]	
	173.6		CCCCCCCCCCCCCCCC(=O)OC [Methyl hexadecanoate]	
193.4			CC(C)OC(=O)C(C)N(C(=O)c1ccccc1)c1ccc(F)c(Cl)c1 (stereo not drawn) [Flamprop-isopropyl]	collision cross section in nitrogen [3]: 182.1 Å²
	148.2		O=S(=O)(O)c1ccc2cc(O)ccc2c1 [Potassium 6-hydroxynaphthalene-2-sulfonate]	
	150.8		O=C1OCCN1N=Cc1ccc([N+](=O)[O-])o1 [Furazolidone]	

Compound	collision cross section in nitrogen [1] [Å²]	collision cross section in nitrogen [2] [Å²]	collision cross section in nitrogen [4] [Å²]	further results
CCOP(=O)(OCC)Oc1nc(Cl)c(Cl)cc1Cl [Chlorpyrifos oxon]	171		162.7	collision cross section in nitrogen [3]: 162.3 Å²
CCOP(=O)(N=C1SCCS1)OCC [Phosfolan]	165.3		150.2	collision cross section in nitrogen [3]: 150.2 Å²
CCOc1cc(C=O)ccc1O [3-Ethoxy-4-hydroxybenzaldehyde]		133.6		
CC(C)c1ccc(O)cc1 [4-Isopropylphenol]		134.1		
C#CCC1=C(C)C(OC(=O)C2C(C=C(C)C)C2(C)C)CC1=O (stereo not drawn) [Prallethrin]	182.8			
COP(=S)(OC)Oc1c(Cl)cc(C)cc1Cl [Tolclofos-methyl]	169.1		153.6	
CNC(=O)Oc1cc(C)cc(C(C)C)c1 [Promecarb]	157.5			
C#CC(C)(C)NC(=O)c1cc(Cl)cc(Cl)c1 [Propyzamide]		157.3		collision cross section in nitrogen [3]: 157.9 Å²
CCCCOC(=O)c1ccccc1C(=O)OCc1ccccc1 [Benzyl butyl phthalate]	178.3			
Cc1cnc(C2=NC(=O)C(C)(C(C)C)N2)c(C(=O)O)c1 (stereo not drawn) [Imazapic]	178.8	168.3	162.4	collision cross section in nitrogen [3]: 162.2 Å²
CC(C)Oc1cccc(NC(=O)c2ccccc2C(F)(F)F)c1 [Flutolanil]	183.5	176.1	172.7	collision cross section in nitrogen [3]: 173.1 Å²
Nc1nc(N)nc(NC2CC2)n1 [Cyromazine]			135.9	collision cross section in nitrogen [3]: 135.6 Å²
CSc1nc(NC(C)C)nc(NC(C)C)n1 [Prometryn]			161	collision cross section in nitrogen [3]: 160.9 Å²
CC(C)(c1ccc(OCC2CO2)cc1)c1ccc(OCC2CO2)cc1 (stereo not drawn) [Bisphenol A diglycidyl ether]	176.7			
OC(Cc1ccccc1Cl)(Cn1nc[nH]c1=S)C1(Cl)CC1 (stereo not drawn) [Prothioconazole]	174.4	171		
